These results are taken from US20080300288A1, “Alkenyldiarylmethanes, Fused Analogs And Syntheses Thereof” (PURDUE RESEARCH FOUNDATION, priority 2005, published 2008).

Like-named read-outs stand apart in the source and are kept apart here.

In data set [1] the target is T1, recombinant HIV-1 RT enzyme (p66/51 dimer) (Human immunodeficiency virus type 1 group M subtype B, UniProt P04585).
T1 construct: recombinant HIV-1 RT enzyme (p66/51 dimer)
Put plainly: RT inhibition assay, incorporation of [32P]GTP into poly(rC)/oligo(dG). Format: biochemical. How it is done: RT Inhibition Assay. Analysis of the effects of the compounds on recombinant HIV-1 RT enzyme (p66/51 dimer) was performed as previously described. See, Buckheit, R. W. J.; Fliakas-Boltz, V.; Decker, W. D.; Robertson, J. L.; Stup, T. L.; Pyle, C. […] Antiviral Res. 1995, 26, 117-132, the disclosure of which is incorporated herein by reference. Briefly, inhibition of purified recombinant reverse transcriptase enzyme was measured by the incorporation of [^32P]GTP into poly(rC)/oligo(dG) (rCdG) homopolymer template primers.

The next data set relates to HIV-1RF. Put plainly: MTS cytoprotection assay, HIV-1RF infection in CEM-SS cells. Type of data set: cell-based. As to conditions: Human immunodeficiency virus 1; HIV-1RF in CEM-SS cells; read-out: EC50 HIV-1RF (inhibition of cytopathicity). How it is done:
(§1) In Vitro Antiviral Assays. Evaluation of the antiviral activity of compounds against HIV-1RF infection in CEM-SS cells was performed using the MTS cytoprotection assay as previously described. See, Rice, W. G.; Bader, J. P. Discovery and in Vitro Development of AIDS Antiviral Drugs as Biopharmaceuticals. Adv. Pharmacol. (San Diego) 1995, 6, 389-438, the disclosure of which is incorporated herein by reference. […] See, Pauwels, R.; Balzarini, J.; Baba, M.; Snoeck, R.; Schols, D.; Herdewijn, P.; Desmyter, J.; De Clercq, E. Rapid and Automated Tetrazolium-based Colorimetric Assay for Detection of Anti-HIV Compounds. J. Virol. Methods 1988, 20, 309-321, the disclosure of which is incorporated herein by reference.
(Formazan colour is commonly taken as a measure of viable cells.)

The test system of the next data set is HIV-1 strain IIIB. The data set can be described thus: MTT assay, HIV-1 strain IIIB in MT-4 cells. The settings on record: Human immunodeficiency virus 1, MT4; HIV-1IIIB in MT-4 cells; read-out: EC50 HIV-1IIIB (inhibition of cytopathicity). Format: cell-based.
The test system of another data set is CEM-SS cells. The data set can be described thus: Cytotoxicity in mock-infected CEM-SS cells. Type of data set: cell-based. As to conditions: read-out: CC50 CEM-SS Cells (50% cytotoxic concentration). On the procedure: as §1, with “[…].;” for “D.; Herdewijn, P.; Desmyter, J.;”, “[…].” for “Clercq, E.”
A further data set relates to MT-4 cells. Put plainly: Cytotoxicity in mock-infected MT-4 cells. Type of data set: cell-based. As to conditions: read-out: CC50 MT-4 Cells (50% cytotoxic concentration).
A short description of data set [2]: In vitro hydrolytic stability study in rat plasma. Type of data set: in vitro ADME. The settings on record: rat plasma in vitro, half-life. How it is done:
NMR spectra were obtained at 300 MHz (^1H) and 75 MHz (^13C) in CDCl3 using CHCl3 as internal standard. Flash chromatography was performed with 230-400 mesh silica gel. […] Melting points are uncorrected. Unless otherwise stated, chemicals and solvents were of reagent grade and used as obtained from commercial sources without further purification. Tetrahydrofuran (THF) was freshly distilled from sodium/benzophenone ketyl radical prior to use. Dichloromethane was freshly distilled from calcium hydride prior to use. Lyophilized rat plasma (lot 052K7609) was obtained from Sigma Chemical Co., St. Louis, Mo. All yields given refer to isolated yields.
In vitro Hydrolytic Stability Study in Rat Plasma. […] See, Silvestri, M. A.; Nagarajan, M.; De Clercq, E.; Pannecouque, C.; Cushman, M. Design, Synthesis, Anti-HIV Activities, and Metabolic Stabilities of Alkenyldiarylmethane (ADAM) Non-nucleoside Reverse Transcriptase Inhibitors. J. Med. Chem. 2004, 47, 3149-3162, the disclosure of which is incorporated herein by reference.

Data set [3] is described as follows: Cytotoxicity in mock-infected CEM-SS cells. Type of data set: cell-based. As to conditions: human, uninfected (mock-infected) CEM-SS cells. How it is done: as §1, with “[…].;” for “D.; Herdewijn, P.; Desmyter, J.;”, “[…].” for “Clercq, E.”
Data set [4] can be described thus: Cytotoxicity in mock-infected MT-4 cells. Format: cell-based. As to conditions: human, uninfected (mock-infected) MT-4 cells.
The test system of another data set is HIV-2 strain (ROD). The data set can be described thus: MTT assay, HIV-2 strain (ROD) in MT-4 cells. The settings on record: Human immunodeficiency virus 2, MT4; HIV-2ROD in MT-4 cells; read-out: EC50 HIV-2-ROD (inhibition of cytopathicity). Format: cell-based.

In general, IC50 refers to the concentration that gives 50% inhibition. What is called EC50 is the concentration needed to bring the measured effect to its halfway point. What is called melting point is the temperature of the solid-liquid transition.

As for `COC(=O)CCCC=C(c1cc(C)c(OC)c(C(=O)OC)c1)c1cc(C)c(OC)c(C(=O)OC)c1` [Compound 1, Methyl 4′,4″-Dimethoxy-3′,3″-di(methoxycarbonyl)-5′,5″-dimethyl-6,6-diphenyl-5-hexenoate], in [1] (poly(rC)•oligo(dG) as the template primer, read-out: IC50 (inhibitory activity vs HIV-1 reverse transcriptase)), the IC50 is 1 µM. The figures for the EC50 in the data set with HIV-1RF and in the data set with HIV-1 strain IIIB were 0.25 µM and 1 µM, respectively. Moreover, the CC50 in the data set with CEM-SS cells was 6 µM; with MT-4 cells, 6.1 µM. Further, the “Rat Plasma tp1/2 (min ± SD)” value in data set [2] was 0.76 ± 0.04 min.
As to `COC(=O)CCC/C=C(\c1cccc(C#N)c1)c1cc(Cl)c(OC)c(C(=O)OC)c1` [Compound 17, (E)-3-Chloro-5-[1-(3-cyanophenyl)-5-methoxycarbonyl-pent-1-enyl]-2-methoxybenzoic Acid Methyl Ester], the IC50 in data set [1] is 0.75 µM. Besides, the EC50 is 7.1 µM in the data set on HIV-1RF, 8.55 µM in the data set with HIV-1 strain IIIB and above 223 µM with HIV-2 strain (ROD). The results for the CC50 in data set [3] and in data set [4] were 20.2 µM and 213 µM, respectively. Moreover, the “Rat Plasma tp1/2 (min ± SD)” value in [2] turned out to be 0.44 ± 0.05 min.
Turning to `COC(=O)CCC/C=C(\c1cccc(C#N)c1)c1cc(Cl)ccc1OC` [Compound 18, (E)-6-(5-Chloro-2-methoxyphenyl)-6-(3-cyanophenyl)-hex-5-enoic Acid Methyl Ester], the IC50 in [1] is 0.78 µM. Besides, the EC50 in the data set on HIV-1RF was 7 µM; in the data set with HIV-1 strain IIIB it was 9.11 µM; in the data set on HIV-2 strain (ROD) it was above 67.6 µM. Further, the CC50 in data set [3] was 16.3 µM; in [4] it was at least 45.1 µM. Also, the “Rat Plasma tp1/2 (min ± SD)” value in [2] was determined as 0.42 ± 0.02 min.
Regarding `COC(=O)CCC/C=C(\c1cccc(C#N)c1)c1cc(C)c2onc(OC)c2c1` [Compound 20, (E)-6-(3-Cyanophenyl)-6-(3-methoxy-7-methylbenzo[d]isoxazol-5-yl)-hex-5-enoic Acid Methyl Ester], the IC50 in data set [1] is 5.7 µM. For the same compound, the EC50 is above 100 µM in the data set on HIV-1RF, above 2.05 µM in the data set with HIV-1 strain IIIB and above 5.63 µM with HIV-2 strain (ROD). Moreover, the CC50 in data set [3] was 0.8 µM; in data set [4], 4.69 µM. The “Rat Plasma tp1/2 (min ± SD)” value in data set [2] is 1.16 ± 0.08 min.
Regarding `COC(=O)CCC/C=C(/c1cc(C)c(OC)c(C(=O)OC)c1)c1cc(C)c2oc(=O)n(C)c2c1` [Compound 60, (Z)-5-[1-(3,7-Dimethyl-2-oxo-2,3-dihydro-benzoxazol-5-yl)-5-methoxycarbonyl-pent-1-enyl]-2-methoxy-3-methylbenzoic Acid Methyl Ester], in [1], the IC50 stood at 0.16 µM. In addition, the values for the EC50 in the data set with HIV-1RF, in the data set on HIV-1 strain IIIB and in the data set with HIV-2 strain (ROD) were 0.87 µM, 1.01 µM and above 28.2 µM, respectively. Moreover, the CC50 in data set [3] was 9.39 µM; in data set [4] it was 28.2 µM. In addition, in data set [2], the “Rat Plasma tp1/2 (min ± SD)” value is listed as 1.74 ± 0.00 min.
`COC(=O)CCC/C=C(/c1cc(Cl)c(OC)c(C(=O)OC)c1)c1cc(C)c2oc(=O)n(C)c2c1` [Compound 61, (E)-3-Chloro-5-[1-(3,7-dimethyl-2-oxo-2,3-dihydro-benzoxazol-5-yl)-5-methoxycarbonyl-pent-1-enyl]-2-methoxybenzoic Acid Methyl Ester]: in data set [1], the IC50 was 0.93 µM. Also, the EC50 with HIV-1RF is 0.53 µM; with HIV-1 strain IIIB it was 0.25 µM; in the data set on HIV-2 strain (ROD), above 29.7 µM. Further, the CC50 amounted to 9.47 µM in [3] and 29.7 µM in data set [4]. For the same compound, the “Rat Plasma tp1/2 (min ± SD)” value in data set [2] turned out to be 0.19 ± 0.01 min.
On to `COC(=O)CCC/C=C(/c1ccc(OC)c(C(=O)OC)c1)c1cc(C)c2oc(=O)n(C)c2c1` [Compound 62, (Z)-5-[1-(3,7-Dimethyl-2-oxo-2,3-dihydrobenzoxazol-5-yl)-5-methoxycarbonyl-pent-1-enyl]-2-methoxy-benzoic Acid Methyl Ester], for which the melting point fell in the range of 134 to 135 °C. For the same compound, the IC50 in data set [1] stood at 0.99 µM. The EC50 with HIV-1RF was 3.08 µM. The EC50 in the data set with HIV-1 strain IIIB came to 4.15 µM. For the same compound, the CC50 in [3] is above 13.5 µM. The compound also registered a CC50 in data set [4] of 115 µM. In addition, the “Rat Plasma tp1/2 (min ± SD)” value in data set [2] amounted to 0.34 ± 0.15 min. Further, the EC50 with HIV-2 strain (ROD) was above 115 µM.
Turning to `COC(=O)CCC/C=C(\c1cc(F)cc(C(F)(F)F)c1)c1cc(C)c2oc(=O)n(C)c2c1` [Compound 63, (Z)-6-(3,7-Dimethyl-2-oxo-2,3-dihydrobenzoxazol-5-yl)-6-(3-fluoro-5-trifluoromethylphenyl)-hex-5-enoic Acid Methyl Ester], the IC50 in data set [1] is above 100 µM. Besides, the values for the EC50 in the data set on HIV-1RF, with HIV-1 strain IIIB and with HIV-2 strain (ROD) were above 100 µM, 4.36 µM and above 60 µM, respectively. Moreover, the CC50 is 15 µM in [3] and 51 µM in data set [4]. In [2], the “Rat Plasma tp1/2 (min ± SD)” value turned out to be 3.06 ± 0.32 min.
In the case of `COC(=O)CCC/C=C(\c1cc(C)c(OC)c(C(=O)OC)c1)c1cc(C)c2oc(=O)n(C)c2c1` [Compound 64, (E)-5-[1-(3,7-Dimethyl-2-oxo-2,3-dihydro-benzoxazol-5-yl)-5-methoxycarbonyl-pent-1-enyl]-2-methoxy-3-methylbenzoic Acid Methyl Ester], the IC50 in data set [1] was determined as 0.02 µM. The values for the EC50 with HIV-1RF, with HIV-1 strain IIIB and in the data set with HIV-2 strain (ROD) were 0.03 µM, 0.09 µM and above 16.9 µM, respectively. The CC50 turned out to be 5.1 µM with CEM-SS cells and 16.9 µM in the data set with MT-4 cells. Besides, the “Rat Plasma tp1/2 (min ± SD)” value in [2] is reported as 1.30 ± 0.09 min.
For the compound `COC(=O)CCC/C=C(/c1cc(C)c2on(C)c(=O)c2c1)c1cc(C)c2oc(=O)n(C)c2c1` [Compound 65, (Z)-6-(2,7-Dimethyl-3-oxo-2,3-dihydro-benzo[d]isoxazol-5-yl)-6-(3,7-dimethyl-2-oxo-2,3-dihydro-benzoxazol-5-yl)-hex-5-enoic Acid Methyl Ester], the IC50 in data set [1] is 49.2 µM. The EC50 with HIV-1RF is 1.79 µM; in the data set on HIV-1 strain IIIB it was 4.48 µM; with HIV-2 strain (ROD), above 36.5 µM. Moreover, the CC50 in [3] stood at 11.1 µM; in data set [4], 36.5 µM. Also, in [2], the “Rat Plasma tp1/2 (min ± SD)” value is listed as 0.46 ± 0.03 min.
In the case of `COC(=O)CCCC=C(c1cc(C)c2oc(=O)n(C)c2c1)c1cc(C)c2oc(=O)n(C)c2c1` [Compound 66, 6,6-Bis-(3,7-dimethyl-2-oxo-2,3-dihydrobenzoxazol-5-yl)-hex-5-enoic Acid Methyl Ester], the IC50 in data set [1] is 0.5 µM. Moreover, the EC50 in the data set on HIV-1RF is 0.62 µM; with HIV-1 strain IIIB, 0.22 µM; in the data set on HIV-2 strain (ROD) it was above 32.5 µM. Also, the CC50 in [3] was found to be 31 µM; in [4], 32.5 µM. In data set [2], the “Rat Plasma tp1/2 (min ± SD)” value is 0.59 ± 0.01 min.
